# Values quoted from earlier work in US11731951B1, “Water reactivity with natural products” (King Faisal University, priority 2023, dated 2023).
# System: Gram-positive bacteria, including multi-resistant and vancomycin-resistant strains
# Details: from "Abyssomicins—A 20-Year Retrospective View"
row,Compound,antibiotic activity
1,CC1CC(C)C(=O)C2=C3OC4C(C)CC3(OC2=O)C(/C=C\C1=O)C4O (centres unmarked) [atrop-abyssomicin C],high antibiotic activity
2,C[C@@H]1C[C@H](C)C(=O)/C=C/C2[C@@H](O)[C@H]3OC4=C(C(=O)O[C@@]42C[C@H]3C)C1=O [abyssomicin C],high antibiotic activity
